The test system of the assay is P335 leukemia ip, BDF1 mice, survival T/C %. In words: NCI In Vivo Anticancer Drug Screen. Data for tumor model P335 Leukemia (intraperitoneal) in B6D2F1 (BDF1) mice. The note with it: endpoint: mean survival time, schedule: Q01DX Z (ip), higher = longer survival. As for the experimental part: The antitumor activity of compounds was measured in mice bearing transplantable tumors. Survival or tumor size were measured and the results are expressed as the measurement made in the treated group (T) divided by the measurement made in the vehicle treated control group (C). The tumor model used in this assay is P335 Leukemia (intraperitoneal) in B6D2F1 (BDF1) mice

“And” between values parts separate entries of the source, which are not always exact repeats. Equal entries are not always repeated. Toxic doses and inconclusive results are not listed.

For the compound `O=C(Nc1ccc(C2=NCCN2)cc1)c1cccc(C(=O)Nc2ccc(C3=NCCN3)cc2)c1`, the T/C was 98 % of control (dose: 9.4 mg/kg/injection, vehicle: carboxymethylcellulose (CMC)); 114 % of control (dose: 18.75 mg/kg/injection, vehicle: carboxymethylcellulose (CMC)); 123 % of control (dose: 37.5 mg/kg/injection, vehicle: carboxymethylcellulose (CMC)); 98 % of control (dose: 75.0 mg/kg/injection, vehicle: carboxymethylcellulose (CMC)).

Consider `CC(=O)OCC1OC(n2ncc(=O)[nH]c2=O)C(OC(C)=O)C1OC(C)=O` (configuration not stated), for which the T/C (dose: 25.0 mg/kg/injection, vehicle: other) is 120 % of control; the T/C (dose: 50.0 mg/kg/injection, vehicle: other) is 109 % of control; the T/C (dose: 99.0 mg/kg/injection, vehicle: other) was 114 % of control; the T/C (dose: 187.5 mg/kg/injection, vehicle: other) is 124 % of control; the T/C (dose: 188.0 mg/kg/injection, vehicle: other) is 114 % of control.

On to `C[C@H](N)C(=O)N[C@@H]1[C@H]2C(=C(O)C[C@@H](O)[C@@H]2O)C(=O)O[C@@H]1C`, for which the T/C reads like this: (dose: 23.43 mg/kg/injection, vehicle: saline) 114 % of control; (dose: 187.5 mg/kg/injection, vehicle: saline) 168 % of control; (dose: 375.0 mg/kg/injection, vehicle: saline) 151 % of control and 182 % of control; (dose: 750.0 mg/kg/injection, vehicle: saline) 191 % of control.

`Cc1cc(N(CCCl)CCCl)ccc1N=Nc1ccccc1C(=O)O`: the T/C by setting is: (dose: 0.12 mg/kg/injection, vehicle: carboxymethylcellulose (CMC)) 90 % of control; (dose: 0.23 mg/kg/injection, vehicle: carboxymethylcellulose (CMC)) 106 % of control; (dose: 0.47 mg/kg/injection, vehicle: carboxymethylcellulose (CMC)) 106 % of control; (dose: 0.94 mg/kg/injection, vehicle: carboxymethylcellulose (CMC)) 94 % of control.

The record behind these values is PubChem BioAssay AID224 (DTP/NCI, 2004).
